Some results are limits rather than exact numbers.

IC50 and Kd data for 16 molecules are collected here from US20230148450A9, “BICYCLIC HETEROARYL COMPOUNDS AND USES THEREOF” (Revolution Medicines, Inc., priority 2019, published 2023).

The target in assay [1] is T1, SOS1 nucleotide exchange of KRAS (catalytic domain of SOS1, residues 564-1049; wild-type KRAS) (Homo sapiens, UniProt Q07889).
T1 construct: tagless catalytic domain of SOS1 (residues 564-1049)
T1 sequence (Q07889 564-1049): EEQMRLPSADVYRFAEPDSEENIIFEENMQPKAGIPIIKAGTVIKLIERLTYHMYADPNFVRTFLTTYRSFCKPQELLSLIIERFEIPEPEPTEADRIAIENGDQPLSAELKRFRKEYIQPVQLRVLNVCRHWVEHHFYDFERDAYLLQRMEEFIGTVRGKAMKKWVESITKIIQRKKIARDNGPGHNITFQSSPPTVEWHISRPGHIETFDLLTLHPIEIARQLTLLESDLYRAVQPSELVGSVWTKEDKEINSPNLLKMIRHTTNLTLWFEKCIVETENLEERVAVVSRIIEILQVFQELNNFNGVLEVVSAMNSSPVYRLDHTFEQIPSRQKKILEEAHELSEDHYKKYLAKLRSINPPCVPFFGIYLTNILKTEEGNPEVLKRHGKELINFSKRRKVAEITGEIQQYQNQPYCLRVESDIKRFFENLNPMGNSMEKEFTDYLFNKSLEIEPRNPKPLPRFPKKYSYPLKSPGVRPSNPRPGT
As to the kind of experiment: Mode of Action Assay: Inhibition of SOS1 Nucleotide Exchange Activity (TR-FRET). It is filed as biochemical. As to conditions: TR-FRET signal. How it is done:
The purpose of this assay was to characterize the inhibitory activity of compounds on SOS1 nucleotide exchange of KRAS. Data was reported as IC50 values based on the TR-FRET signal.
Note—the following protocol describes a procedure for monitoring the inhibition of SOS1 nucleotide exchange activity of wild-type KRAS in response to a compound of the invention. Other KRAS mutants and RAS isoforms maybe employed.
In assay buffer containing 20 mM HEPES, pH 7.5, 150 mM NaCl, 5 mM MgCl2, 0.05% Tween-20, 0.1% BSA, 1 mM DTT, concentration series of test compounds were generated spanning 100 μM to 1.7 nM over eleven 3-fold serial dilutions in a 384-well assay plate at a volume of 20 μL. The purified tagless catalytic domain of SOS1 (residues 564-1049) was first diluted in assay buffer at a concentration of 100 nM, and then 20 μL of the SOS1 containing solution was directly dispensed into compound plates. The SOS1/compound mixture was incubated at room temperature with constant mixing on an orbital shaker for 20 minutes to allow the reaction to reach equilibrium. A KRAS mixture was prepared by diluting 66.7 nM avi-tagged KRAS (residue 1-169), 3.33 nM Streptavidin-Tb and 333 nM EDA-GTP-DY-647P1 in assay buffer. This mixture was prepared immediately before addition to the SOS1/compound mixture to prevent intrinsic nucleotide exchange. Then 5 μL of the pre-incubated SOS1/compound mixture and 7.5 μL of the KRAS mixture were added sequentially in a 384-well low volume black round bottom plate and incubated at room temperature with constant shaking for 30 minutes. Time-resolved fluorescence was measured on a PerkinElmer Envision plate reader. DMSO and 10 μM of compound (i) were used as negative and positive controls, respectively.
Three replicates were performed for each compound. Data were normalized by the following: (Positive control—Sample signal)/(Positive control—negative control)*100. The data were fit using a four-parameter logistic fit.

For assay [2], the target named is T2, SOS1 catalytic domain (residues 564-1049) (Homo sapiens, UniProt Q07889).
T2 construct: SOS1 catalytic domain (residues 564-1049) immobilized on a sensor chip
T2 sequence (Q07889 564-1049): T1 sequence (Q07889 564-1049)
As to the kind of experiment: Binding affinity to SOS1 using Surface Plasmon Resonance (SPR). The note with it: avi-tagged SOS1 catalytic domain immobilized on sensor chip; read-out: SOS1 SPR Equilibrium Kd. The source says:
Potency Assay: Measurement of the Binding Affinity of Compounds of the Invention to SOS! using Surface Plasmon Resonance (SPR)
The purpose of the SPR assay was to measure the direct binding of compounds to SOS1 catalytic domain (residues 564-1049) immobilized on a sensor chip. Data was reported as equilibrium dissociation constant (Kd) values.
Using a GE Biacore 8K SPR instrument, avi-tagged SOS1 catalytic domain protein was immobilized to a level of approximately 6000 response units (RU) on a streptavidin-coated SPR sensor chip in assay buffer containing 0.01 M HEPES, 0.15 M NaCl and 0.05% v/v Surfactant P20. In assay buffer containing 2% DMSO, concentration series of test compounds were generated spanning 5 μM to 4.9 nM over ten 2-fold dilutions. For each test compound, a separate 0 μM sample was generated for use during subsequent double reference subtraction. Serially for each test compound, individual dilution samples were flowed over the immobilized SOS1 protein at a flow rate of 50 μL/minute to monitor the association with SOS1. Dissociation of bound test compound from the SOS1 protein was immediately monitored by flowing assay buffer over the sensor surface and monitoring the decrease in binding signal back to the baseline level seen in the absence of compound. This was repeated for all compound dilutions in each series. The binding level response for each test compound concentration was noted immediately prior to the end of the association phase, and a secondary plot generated showing binding response level versus test compound concentration generated for each compound dilution series.

The subject of assay [3] is cellular pERK in PC-9 cells (EGFR Ex19Del). In words: Potency Assay: pERK. Type of assay: cell-based. As to conditions: Homo sapiens; PC-9 cells (EGFR Ex19Del), 1 hour incubation, AlphaLISA p-ERK1/2; read-out: SOS1 pERK IC50. The source says: The purpose of this assay is to measure the ability of test compounds to inhibit SOS1 function in cells. SOS1 activates RAS proteins by catalyzing the conversion of […] to […] in response to receptor tyrosine kinase activation. Activation of RAS induces a sequence of cellular signaling events that results in increased phosphorylation of ERK at […] (pERK). The procedure described below measures the level of cellular pERK in response to test compounds in PC-9 cells (EGFR Ex[…]). PC-9 cells were grown and maintained using media and procedures recommended by the ATCC. On the day prior to compound addition, cells were plated in 384-well cell culture plates (40 μL/well) and grown overnight in a 37° C., 5% CO2 incubator. Test compounds were prepared in 10, 3-fold dilutions in DMSO, with a top concentration of 10 mM. On the day of the assay, 40 nL of test compound was added to each well of cell culture plate using an Echo550 liquid handler (LabCyte). Concentrations of test compound were tested in duplicate with highest test concentration being 10 μM. After compound addition, cells were incubated for 1 hour at 37° C., 5% CO2. Following incubation, culture medium was removed and cells were washed once with phosphate buffered saline. Cellular pERK level was determined using the AlphaLISA SureFire Ultra p-ERK1/2 Assay Kit (PerkinElmer). Cells were lysed in 25 μL lysis buffer, with shaking at 600 RPM at room temperature for 15 minutes. Lysate (10 μL) was transferred to a 384-well Opti-plate (PerkinElmer) and 5 μL acceptor mix was added. The plate was centrifuged at 1000 RPM for 1 minute, and incubated in the dark for 2 hours. Following this incubation, 5 μL of donor mix was added, the plate was sealed and centrifuged at 1000 RPM for 1 minute, and the mixture was incubated for 2 hours at room temperature. Signal was read on an Envision plate reader (PerkinElmer) using standard AlphaLISA settings. Analysis of raw data was carried out in Excel (Microsoft) and Prism (GraphPad). Signal was plotted vs. the decadal logarithm of compound concentration, and IC50 was determined by fitting a 4-parameter sigmoidal concentration response model.

For `C[C@@H](Nc1ncnc2sc(C(=O)N3CCOCC3)cc12)c1cccc(C(F)(F)CO)c1` [Example 83, (R)-(4-((1-(3-(1,1-difluoro-2-hydroxyethyl)phenyl)ethyl)amino)thieno[2,3-d]pyrimidin-6-yl)(morpholino)methanone], the IC50 in assay [1] and in assay [3] was under 1000 nM each time. Besides, the Kd in assay [2] is at most 400 nM.

Regarding `C[C@@H](Nc1ncnn2cc(C(=O)N3CCOCC3)cc12)c1cc(N)cc(C(F)(F)F)c1` [Example 50, N-[(1R)-1-[3-amino-5-(trifluoromethyl)phenyl]ethyl]-6-(morpholine-4-carbonyl)pyrrolo[2,1-f][1,2,4]triazin-4-amine], the 50% inhibitory concentration (IC50) in assay [1] and in assay [3] was under 1000 nM in each case. The Kd in assay [2] is over 400 nM.

Consider `C[C@@H](Nc1ncnn2cc(C(=O)N3CC4(C3)CN(C3COC3)C4)cc12)c1cccc(C(F)F)c1F` [Example 72], for which the half-maximal inhibitory concentration (IC50) in assay [1] and in assay [3] was under 1000 nM throughout. Moreover, the equilibrium dissociation constant (Kd) in assay [2] was at most 400 nM.

`Cc1nc(N[C@H](C)c2cc(N)cc(C(F)(F)F)c2)c2cc(C(=O)N3CC(O)C3)cn2n1` [Example 33, [4-[[(1R)-1-[3-amino-5-(trifluoromethyl)phenyl]ethyl]amino]-2-methyl-pyrrolo[2,1-f][1,2,4]triazin-6-yl]-(3-hydroxyazetidin-1-yl)methanone]: the IC50 in assay [1] and in assay [3] was under 1000 nM throughout. Moreover, the Kd in assay [2] is over 400 nM.

Consider `C[C@@H](Nc1nccc2nc(C(=O)N3CC4(C3)CN(C3CC3)C4)cn12)c1cccc(C(F)F)c1F` [Example 90], for which the IC50 in assay [1] and in assay [3] was under 1000 nM in each case. Moreover, the Kd in assay [2] is at most 400 nM.

As for `C[C@@H](Nc1ncnc2sc(C(=O)N3CCN(C4COC4)CC3)cc12)c1cccc(C(F)F)c1F` [Example 84, (R)-(4-((1-(3-(difluoromethyl)-2-fluorophenyl)ethyl)amino)thieno[2,3-d]pyrimidin-6-yl)(4-(oxetan-3-yl)piperazin-1-yl)methanone], the IC50 in assay [1] and in assay [3] was under 1000 nM each time. For the same molecule, the dissociation constant Kd in assay [2] is at most 400 nM.

As for `C[C@@H](Nc1nccn2nc(C3=CCNCC3)nc12)c1cc(N)cc(C(F)(F)F)c1` [Example 53, N-[(1R)-1-[3-amino-5-(trifluoromethyl)phenyl]ethyl]-2-(1,2,3,6-tetrahydropyridin-4-yl)-[1,2,4]triazolo[1,5-a]pyrazin-8-amine], the IC50 in assay [1] and in assay [3] was over 1000 nM each time. The equilibrium dissociation constant (Kd) in assay [2] is at most 400 nM.

For `C[C@@H](Nc1nccc2nc(C(=O)N3CCN(C4COC4)CC3)cn12)c1cccc(C(F)F)c1F` [Example 87], the IC50 in assay [1] was under 1000 nM; in assay [3], over 1000 nM. Further, the Kd in assay [2] was at most 400 nM.

Take `Cc1nc(N[C@H](C)c2cc(N)cc(C(F)(F)F)c2)c2cc(C3(O)CC(O)C3)cn2n1` (stereo partly drawn) [Example 35, (R)-1-(4-((1-(3-amino-5-(trifluoromethyl)phenyl)ethyl)amino)-2-methylpyrrolo[2,1-f][1,2,4]triazin-6-yl)cyclobutane-1,3-diol]: the IC50 in assay [1] and in assay [3] was over 1000 nM each time. The Kd in assay [2] is at most 400 nM.

As for `C[C@@H](Nc1nc(Cl)nc2cc(C(=O)N3CCOCC3)[nH]c12)c1cc(N)cc(C(F)(F)F)c1` [Example 51, N-[(1R)-1-[3-amino-5-(trifluoromethyl)phenyl]ethyl]-2-chloro-6-(morpholine-4-carbonyl)-5H-pyrrolo[3,2-d]pyrimidin-4-amine], the concentration for half-maximal inhibition (IC50) in assay [1] and in assay [3] was over 1000 nM in each case. Further, the Kd in assay [2] was over 400 nM.

In the case of `C[C@@H](Nc1nccc2nc(C(=O)N3CC4(C3)CN(C3COC3)C4)cn12)c1cccc(C(F)F)c1F` [Example 88], the IC50 in assay [1] and in assay [3] was under 1000 nM throughout. Also, the Kd in assay [2] was at most 400 nM.

Regarding `C[C@@H](Nc1ncnn2cc(C(=O)N3CC4(COC4)C3)cc12)c1cccc(C(F)F)c1F` [Example 71], the 50% inhibitory concentration (IC50) in assay [1] and in assay [3] was under 1000 nM each time. Besides, the dissociation constant (Kd) in assay [2] was at most 400 nM.

In the case of `C[C@@H](Nc1ncnc2sc(C(=O)N3CCOCC3)nc12)c1cc(N)cc(C(F)(F)F)c1` [Example 42, [7-[[(1R)-1-[3-amino-5-(trifluoromethyl)phenyl]ethyl]amino]thiazolo[5,4-d]pyrimidin-2-yl]-morpholino-methanone], the IC50 in assay [1] and in assay [3] was under 1000 nM each time. For the same molecule, the equilibrium dissociation constant (Kd) in assay [2] is at most 400 nM.

`C[C@@H](Nc1ncnn2cc(C(=O)N3CCN(C)CC3)cc12)c1cccc(C(F)F)c1F` [Example 69]: the IC50 in assay [1] and in assay [3] was under 1000 nM throughout. Further, in assay [2], the Kd was at most 400 nM.

For the molecule `C[C@@H](Nc1ncnc2cc(C(=O)N3CCOCC3)sc12)c1cc(N)cc(C(F)(F)F)c1` [Example 31, [4-[[(1R)-1-[3-amino-5-(trifluoromethyl)phenyl]ethyl]amino]thieno[3,2-d]pyrimidin-6-yl]-morpholino-methanone], the concentration for half-maximal inhibition (IC50) in assay [1] and in assay [3] was over 1000 nM in each case. In assay [2], the dissociation constant Kd is at most 400 nM.

Turning to `Cc1cn2nc(C(=O)N3CCN4CCC4C3)cc2c(N[C@H](C)c2cc(N)cc(C(F)(F)F)c2)n1` (stereo partly drawn) [Example 82], the concentration for half-maximal inhibition (IC50) in assay [1] and in assay [3] was under 1000 nM each time. Moreover, the Kd in assay [2] was at most 400 nM.
